The values below are quoted from earlier work in patent US8440702B2, “1,3-oxazolidin -2-one derivatives useful as CETP inhibitors” (Merck Sharp & Dohme Corp., priority 2005, dated 2013).

The conditions of this data set: clinical trials terminated.

For the molecule `CCOC(=O)N1c2ccc(C(F)(F)F)cc2[C@@H](N(Cc2cc(C(F)(F)F)cc(C(F)(F)F)c2)C(=O)OC)C[C@H]1CC` [torcetrapib], the “mortality in patients using the drug during outcomes studies” value is listed as “increased mortality”.
